# Test results reported in BindingDB's records for doi:10.1016/j.bmcl.2014.07.010 (Freie Universitaet Berlin, 2014).
# Assay: Inhibition of influenza A virus (A/Perth/16/2009(H3N2)) neuraminidase using MUNANA substrate pre-incubated for 30 mins before substrate addition by fluorometric assay
row,SMILES,IC50
1,O=c1cc(-c2ccc(O)c(O)c2)oc2cc(O[C@@H]3O[C@H](CO)[C@@H](O)[C@H](O)[C@H]3O)cc(O)c12,51.2 µM
2,O=c1c(O)c(-c2ccc(O)cc2)oc2cc(O)cc(O)c12,42.2 µM
3,"O=c1cc(O)cc2oc(-c3ccc(O)c(O)c3)c(O[C@@H]3O[C@H](CO)[C@H](O)[C@H](O)[C@H]3O)c(O)c1-2 [2-(3,4-Dihydroxy-phenyl)-5,7-dihydroxy-3-((2S,4R,5R)-3,4,5-trihydroxy-6-hydroxymethyl-tetrahydro-pyran-2-yloxy)-chromen-4-one]",85.5 µM
4,C[C@@H]1O[C@@H](Oc2c(-c3ccc(O)c(O)c3)oc3cc(O)cc(O)c3c2=O)[C@H](O)[C@H](O)[C@H]1O [CHEBI:17558],121 µM
5,O=c1cc(O)cc2oc(-c3ccc(O)c(O)c3)c(O[C@@H]3O[C@H](CO)[C@@H](O)[C@H](O)[C@H]3O)c(O)c1-2 [Quercetin 3-O-beta-D-glucoside],477 µM
